Reference: patent publication US20260274833A1 (NiKang Therapeutics, Inc., priority 2022, published 2026)

These compounds were tested against T1, CDK2 (Homo sapiens, UniProt P24941) (assay: Phospho-RB measurement in OVCAR3 cells (HTRF phospho-RB cellular kit)). Conditions: inhibition of RB phosphorylation at S807/811 (HTRF, TR-FRET ratio 665/620), 24 h compound treatment, 0.3 to 10,000 nM.
T1 construct: endogenous in cells; host or cells: OVCAR3 cells
Format: cell-based
Summary of the method: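 IC50 came from a four-parameter logistic fit of the DMSO-normalized TR-FRET ratio (665/620 nm). That ratio reflects RB phosphorylation at S807/811, read with an HTRF antibody pair 4 h after adding lysate at room temperature.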

| Compound | IC50 [nM] |
| --- | --- |
| CN1CCN(S(=O)(=O)Nc2cccc(-c3nc(C(C)(C)C)sc3-c3ccnc(NC4CCN(S(C)(=O)=O)CC4)n3)c2F)c2ccccc21 [Example 99, N-(3-(2-(tert-butyl)-5-(2-((1-(methylsulfonyl)piperidin-4-yl)amino)-pyrimidin-4-yl)thiazol-4-yl)-2-fluoro-phenyl)-4-methyl-3,4-dihydro-quinoxaline-1(2H)-sulfonamide] | 202 |
| CN(c1ccccc1)S(=O)(=O)Nc1cccc(-c2nc(C(C)(C)C)sc2-c2ccnc(NC3CCN(S(C)(=O)=O)CC3)n2)c1F [Example 100, N-(3-(2-(tert-butyl)-5-(2-((1-(methylsulfonyl)piperidin-4-yl)amino)-pyrimidin-4-yl)thiazol-4-yl)-2-fluorophenyl)(N-methyl-N-phenyl)-aminosulfonamide] | 1240 |
| CC(C)(C)OC(=O)N1CCN(S(=O)(=O)Nc2cccc(-c3nc(C(C)(C)C)sc3-c3ccnc(NC4CCN(S(C)(=O)=O)CC4)n3)c2F)c2ccccc21 [Example 101, tert-butyl 4-(N-(3-(2-(tert-butyl)-5-(2-((1-(methylsulfonyl)piperidin-4-yl)amino)-pyrimidin-4-yl)thiazol-4-yl)-2-fluorophenyl)-sulfamoyl)-3,4-dihydroquinoxaline-1(2H)-carboxylate] | 1830 |
| CC(C)(C)c1nc(-c2cccc(NS(=O)(=O)N3Cc4ccncc4C3)c2F)c(-c2ccnc(NC3CCN(S(C)(=O)=O)CC3)n2)s1 [Example 103, N-(3-(2-(tert-butyl)-5-(2-((1-(methylsulfonyl)piperidin-4-yl)amino)-pyrimidin-4-yl)thiazol-4-yl)-2 fluorophenyl)-1,3-dihydro-2H-pyrrolo[3,4-c] pyridine-2-sulfonamide] | 142 |
| CC(C)(C)c1nc(-c2cccc(NS(=O)(=O)N3CCc4c(C#N)cccc43)c2F)c(-c2ccnc(NC3CCN(S(C)(=O)=O)CC3)n2)s1 [Example 104, N-(3-(2-(tert-butyl)-5-(2-((1-(methylsulfonyl)piperidin-4-yl)amino)-pyrimidin-4-yl)thiazol-4-yl)-2-fluorophenyl)-4-cyanoindoline-1-sulfonamide] | 82 |
| CN(C)CCN(C)S(=O)(=O)N1CCC(Nc2nccc(-c3sc(C(C)(C)C)nc3-c3cccc(NS(=O)(=O)N4CCOc5ccccc5C4)c3F)n2)CC1 [Example 105, N-(3-(2-(tert-butyl)-5-(2-((1-(N-(2-(dimethyl-amino)ethyl)-N-methyl-sulfamoyl)piperidin-4-yl)amino)-pyrimidin-4-yl)thiazol-4-yl)-2-fluoro-phenyl)-2,3-dihydrobenzo [f][1,4]-oxazepine-4 (5H)-sulfonamide] | 215 |
| CC(C)(C)c1nc(-c2cccc(NS(=O)(=O)N3CCOc4ncccc4C3)c2F)c(-c2ccnc(NC3CCN(S(C)(=O)=O)CC3)n2)s1 [Example 110, N-(3-(2-(tert-butyl)-5-(2-((1-(methylsulfonyl)-piperidin-4-yl)amino)-pyrimidin-4-yl)thiazol-4-yl)-2-fluoro-phenyl)-2,3-dihydropyrido [3,2-f][1,4]-oxazepine-4 (5H)-sulfonamide] | 1030 |
| CN1CCN(S(=O)(=O)N2CCC(Nc3nccc(-c4sc(C(C)(C)C)nc4-c4cccc(NS(=O)(=O)N(C)C5CCC5)c4F)n3)CC2)CC1 [Example 111, N-(3-(2-(tert-butyl)-5-(2-((1-((4-methylpiperazin-1-yl)sulfonyl)piperidin-4-yl)amino)pyrimidin-4-yl)thiazol-4-yl)-2-fluorophenyl)-(N-methyl-N-cyclobutylamine)-sulfonamide] | 908 |
| CN1CCN(S(=O)(=O)N2CCC(Nc3nccc(-c4sc(C(C)(C)C)nc4-c4cccc(NS(=O)(=O)N(C)C5CC5)c4F)n3)CC2)CC1 [Example 112, N-(3-(2-(tert-butyl)-5-(2-((1-((4-methylpiperazin-1-yl)sulfonyl)piperidin-4-yl)amino)pyrimidin-4-yl)thiazol-4-yl)-2-fluorophenyl)-(N-methyl-N-cyclopropylamine)-sulfonamide] | 1210 |
| CC(C)(C)c1nc(-c2cccc(NS(=O)(=O)N3CCc4ccccc4C3)c2F)c(-c2ccnc(NC3CCN(S(=O)(=O)N4CCNCC4)CC3)n2)s1 [Example 114, N-(3-(2-(tert-butyl)-5-(2-((1-(piperazin-1-ylsulfonyl)piperidin-4-yl)amino)-pyrimidin-4-yl)thiazol-4-yl)-2-fluoro-phenyl)-3,4-dihydro-isoquinoline-2(1H)-sulfonamide] | 276 |
| CC(C)(C)c1nc(-c2cccc(NS(=O)(=O)N3CCOc4ccccc4C3)c2F)c(-c2ccnc(NC3CCN(S(=O)(=O)N4CCNCC4)CC3)n2)s1 [Example 115, N-(3-(2-(tert-butyl)-5-(2-((1-(piperazin-1-ylsulfonyl)piperidin-4-yl)amino)-pyrimidin-4-yl)thiazol-4-yl)-2-fluorophenyl)-2,3-dihydrobenzo [f][1,4]-oxazepine-4(5H)-sulfonamide] | 636 |
| COc1ccc2c(c1)CN(S(=O)(=O)Nc1cccc(-c3nc(C(C)(C)C)sc3-c3ccnc(NC4CCN(S(=O)(=O)N5CCNCC5)CC4)n3)c1F)C2 [Example 119, N-(3-(2-(tert-butyl)-5-(2-((1-(piperazin-1-ylsulfonyl)piperidin-4-yl)amino)-pyrimidin-4-yl)thiazol-4-yl)-2-fluoro-phenyl)-5-methoxy-isoindoline-2-sulfonamide] | 397 |
| CC(C)(C)c1nc(-c2cccc(NS(=O)(=O)N3CCc4ccc(C#N)cc43)c2F)c(-c2ccnc(NC3CCN(S(=O)(=O)N4CCNCC4)CC3)n2)s1 [Example 120, N-(3-(2-(tert-butyl)-5-(2-((1-(piperazin-1-ylsulfonyl)piperidin-4-yl)amino)-pyrimidin-4-yl)thiazol-4-yl)-2-fluorophenyl)-6-cyanoindoline-1-sulfonamide] | 86.9 |
| CN(C)CCN(C)S(=O)(=O)N1CCC(Nc2nccc(-c3sc(C(C)(C)C)nc3-c3cccc(NS(=O)(=O)N4Cc5cccnc5C4)c3F)n2)CC1 [Example 121, N-(3-(2-(tert-butyl)-5-(2-((1~(N-(2-(dimethylamino)ethyl)-N-methylsulfamoyl)-piperidin-4-yl)amino)-pyrimidin-4-yl)thiazol-4-yl)-2-fluoro-phenyl)-5,7-dihydro-6H-pyrrolo[3,4-b]-pyridine-6-sulfonamide] | 265 |

Continued by falling IC50, values first:

| IC50 [nM] | Compound |
| --- | --- |
| 2070 | CN(C1CC1)S(=O)(=O)Nc1cccc(-c2nc(C(C)(C)C)sc2-c2ccnc(NC3CCN(S(=O)(=O)N4CCNCC4)CC3)n2)c1F [Example 108, N-(3-(2-(tert-butyl)-5-(2-((1-(piperazin-1-yl-sulfonyl)piperidin-4-yl)amino)-pyrimidin-4-yl)thiazol-4-yl)-2-fluoro-phenyl)(N-methyl-N-cyclopro-pylamine)-sulfonamide] |
| 919 | CN(C1CCC1)S(=O)(=O)Nc1cccc(-c2nc(C(C)(C)C)sc2-c2ccnc(NC3CCN(S(=O)(=O)N4CCNCC4)CC3)n2)c1F [Example 107, N-(3-(2-(tert-butyl)-5-(2-((1-(piperazin-1-yl-sulfonyl)piperidin-4-yl)amino)-pyrimidin-4-yl)thiazol-4-yl)-2-fluoro-phenyl)(N-methyl-N-cyclo-butylamine)-sulfonamide] |
| 511 | CC(C)(C)c1nc(-c2cccc(NS(=O)(=O)N3CCOc4ccccc43)c2F)c(-c2ccnc(NC3CCN(S(C)(=O)=O)CC3)n2)s1 [Example 98, N-(3-(2-(tert-butyl)-5-(2-((1-(methylsulfonyl)piperidin-4-yl)amino)-pyrimidin-4-yl)thiazol-4-yl)-2-fluoro-phenyl)-2,3-dihydro-4H-benzo[b][1,4]-oxazine-4-sulfonamide] |
| 390 | CC(C)(C)c1nc(-c2cccc(NS(=O)(=O)N3CCNc4ccccc4C3)c2F)c(-c2ccnc(NC3CCN(S(=O)(=O)N4CCNCC4)CC3)n2)s1 [Example 116, N-(3-(2-(tert-butyl)-S-(2-((1-(piperazin-1-ylsulfonyl)piperidin-4-yl)amino)-pyrimidin-4-yl)thiazol-4-yl)-2-fluorophenyl)-1,2,3,5-tetrahydro-4H-benzo[e][1,4] diazepine-4-sulfonamide] |
| 281 | CC(C)(C)c1nc(-c2cccc(NS(=O)(=O)N3CCNc4ccccc4C3)c2F)c(-c2ccnc(NC3CCN(S(C)(=O)=O)CC3)n2)s1 [Example 102, N-(3-(2-(tert-butyl)-5-(2-((1-(methylsulfonyl)piperidin-4-yl)amino)-pyrimidin-4-yl)thiazol-4-yl)-2-fluorophenyl)-1,2,3,5-tetrahydro-4H-benzo[e] [1,4]diazepine-4-sulfonamide] |
| 263 | CC(C)(C)c1nc(-c2cccc(NS(=O)(=O)N3CCNc4ccccc43)c2F)c(-c2ccnc(NC3CCN(S(C)(=O)=O)CC3)n2)s1 [Example 106, N-(3-(2-(tert-butyl)-5-(2-((1-(methylsulfonyl)piperidin-4-yl)amino)-pyrimidin-4-yl)thiazol-4-yl)-2-fluorophenyl)-3,4-dihydroquinoxaline-1(2H)-sulfonamide] |
| 210 | CC1c2ccccc2CN1S(=O)(=O)Nc1cccc(-c2nc(C(C)(C)C)sc2-c2ccnc(NC3CCN(S(C)(=O)=O)CC3)n2)c1F (centres unmarked) [Example 109, N-(3-(2-(tert-butyl)-5-(2-((1-(methylsulfonyl)-piperidin-4-yl)amino)-pyrimidin-4-yl)thiazol-4-yl)-2-fluoro-phenyl)-1-methylisoindoline-2-sulfonamide] |
| 120 | CC(C)(C)c1nc(-c2cccc(NS(=O)(=O)N3Cc4ccccc4C3)c2F)c(-c2ccnc(NC3CCN(S(=O)(=O)N4CCNCC4)CC3)n2)s1 [Example 113, N-(3-(2-(tert-butyl)-5-(2-((1-(piperazin-1-ylsulfonyl)piperidin-4-yl)amino)-pyrimidin-4-yl)thiazol-4-yl)-2-fluoro-phenyl)isoindoline-2-sulfonamide] |
| 66.9 | CC(C)(C)c1nc(-c2cccc(NS(=O)(=O)N3CCc4ccc(C#N)cc43)c2F)c(-c2ccnc(NC3CCN(S(C)(=O)=O)CC3)n2)s1 [Example 118, N-(3-(2-(tert-butyl)-5-(2-((1-(methylsulfonyl)-piperidin-4-yl)amino)-pyrimidin-4-yl)thiazol-4-yl)-2-fluorophenyl)-6-cyanoindoline-1-sulfonamide] |
